Source: PubChem BioAssay (NCI)
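These data come from cells grown in 96-well plates and exposed to compound for 48 hours at five concentrations. TGI: concentration producing complete growth inhibition.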

Columns and labels:
Experiment in all cases: NCI anticancer screen, dose series, 48 h
786-0 renal = tested on: 786-0 renal
A498 renal = tested on: A498 renal
A549 NSCLC = tested on: A549 NSCLC
ACHN renal = tested on: ACHN renal
CAKI-1 renal = tested on: CAKI-1 renal
CCRF-CEM leukemia = tested on: CCRF-CEM leukemia
COLO 205 colon = tested on: COLO 205 colon
DLD-1 colon = tested on: DLD-1 colon
DMS 114 small cell lung = tested on: DMS 114 small cell lung
DMS 273 small cell lung = tested on: DMS 273 small cell lung
EKVX NSCLC = tested on: EKVX NSCLC
HCC-2998 colon = tested on: HCC-2998 colon
HCT-116 colon = tested on: HCT-116 colon
HCT-15 colon = tested on: HCT-15 colon
HL-60(TB) leukemia = tested on: HL-60(TB) leukemia
HOP-18 NSCLC = tested on: HOP-18 NSCLC
HOP-62 NSCLC = tested on: HOP-62 NSCLC
HOP-92 NSCLC = tested on: HOP-92 NSCLC
HT29 colon = tested on: HT29 colon
IGROV1 ovarian = tested on: IGROV1 ovarian
K-562 leukemia = tested on: K-562 leukemia
KM12 colon = tested on: KM12 colon
KM20L2 colon = tested on: KM20L2 colon
LOX IMVI melanoma = tested on: LOX IMVI melanoma
LXFL 529 NSCLC = tested on: LXFL 529 NSCLC
M14 melanoma = tested on: M14 melanoma
M19-MEL melanoma = tested on: M19-MEL melanoma
MALME-3M melanoma = tested on: MALME-3M melanoma
MOLT-4 leukemia = tested on: MOLT-4 leukemia
NCI-H226 lung = tested on: NCI-H226 lung
NCI-H23 lung = tested on: NCI-H23 lung
NCI-H460 lung = tested on: NCI-H460 lung
NCI-H522 lung = tested on: NCI-H522 lung
OVCAR-3 ovarian = tested on: OVCAR-3 ovarian
OVCAR-4 ovarian = tested on: OVCAR-4 ovarian
OVCAR-5 ovarian = tested on: OVCAR-5 ovarian
OVCAR-8 ovarian = tested on: OVCAR-8 ovarian
RPMI-8226 leukemia = tested on: RPMI-8226 leukemia
RXF-631 renal = tested on: RXF-631 renal
SF-268 CNS = tested on: SF-268 CNS
SF-295 CNS = tested on: SF-295 CNS
SF-539 CNS = tested on: SF-539 CNS
SK-MEL-2 melanoma = tested on: SK-MEL-2 melanoma
SK-MEL-28 melanoma = tested on: SK-MEL-28 melanoma
SK-MEL-5 melanoma = tested on: SK-MEL-5 melanoma
SK-OV-3 ovarian = tested on: SK-OV-3 ovarian
SN12C renal = tested on: SN12C renal
SNB-19 CNS = tested on: SNB-19 CNS
SNB-75 CNS = tested on: SNB-75 CNS
SNB-78 CNS = tested on: SNB-78 CNS
SR leukemia = tested on: SR leukemia
SW-620 colon = tested on: SW-620 colon
TK-10 renal = tested on: TK-10 renal
U251 CNS = tested on: U251 CNS
UACC-257 melanoma = tested on: UACC-257 melanoma
UACC-62 melanoma = tested on: UACC-62 melanoma
UO-31 renal = tested on: UO-31 renal
XF 498 CNS = tested on: XF 498 CNS

## CC(C)N(C(=O)C12C3C4C5C3C1(C(=O)N(C(C)C)C(C)C)C5(C#N)C42)C(C)C (stereo not drawn)
786-0 renal
  TGI: > 100 µM
A498 renal
  TGI: > 100 µM
A549 NSCLC
  TGI: > 100 µM
ACHN renal
  TGI: > 100 µM
CAKI-1 renal
  TGI: > 100 µM
CCRF-CEM leukemia
  TGI: 51.6 µM
COLO 205 colon
  TGI: > 100 µM
DLD-1 colon
  TGI: 66.5 µM
DMS 114 small cell lung
  TGI: > 100 µM
DMS 273 small cell lung
  TGI: > 100 µM
EKVX NSCLC
  TGI: > 100 µM
HCC-2998 colon
  TGI: > 100 µM
HCT-116 colon
  TGI: > 100 µM
HCT-15 colon
  TGI: > 100 µM
HL-60(TB) leukemia
  TGI: 39.4 µM
HOP-18 NSCLC
  TGI: > 100 µM
HOP-62 NSCLC
  TGI: > 100 µM
HOP-92 NSCLC
  TGI: > 100 µM
HT29 colon
  TGI: > 100 µM
IGROV1 ovarian
  TGI: > 100 µM
K-562 leukemia
  TGI: 73 µM
KM12 colon
  TGI: > 100 µM
KM20L2 colon
  TGI: > 100 µM
LOX IMVI melanoma
  TGI: 47.2 µM
LXFL 529 NSCLC
  TGI: > 100 µM
M14 melanoma
  TGI: > 100 µM
M19-MEL melanoma
  TGI: > 100 µM
MALME-3M melanoma
  TGI: > 100 µM
MOLT-4 leukemia
  TGI: > 100 µM
NCI-H226 lung
  TGI: > 100 µM
NCI-H23 lung
  TGI: > 100 µM
NCI-H460 lung
  TGI: > 100 µM
NCI-H522 lung
  TGI: > 100 µM
OVCAR-3 ovarian
  TGI: > 100 µM
OVCAR-4 ovarian
  TGI: > 100 µM
OVCAR-5 ovarian
  TGI: > 100 µM
OVCAR-8 ovarian
  TGI: > 100 µM
RPMI-8226 leukemia
  TGI: 66.2 µM
RXF-631 renal
  TGI: > 100 µM
SF-268 CNS
  TGI: > 100 µM
SF-295 CNS
  TGI: > 100 µM
SF-539 CNS
  TGI: > 100 µM
SK-MEL-2 melanoma
  TGI: > 100 µM
SK-MEL-28 melanoma
  TGI: > 100 µM
SK-MEL-5 melanoma
  TGI: > 100 µM
SK-OV-3 ovarian
  TGI: > 100 µM
SN12C renal
  TGI: > 100 µM
SNB-19 CNS
  TGI: > 100 µM
SNB-75 CNS
  TGI: > 100 µM
SNB-78 CNS
  TGI: > 100 µM
SR leukemia
  TGI: 66.4 µM
SW-620 colon
  TGI: > 100 µM
TK-10 renal
  TGI: > 100 µM
U251 CNS
  TGI: > 100 µM
UACC-257 melanoma
  TGI: > 100 µM
UACC-62 melanoma
  TGI: > 100 µM
UO-31 renal
  TGI: > 100 µM
XF 498 CNS
  TGI: > 100 µM
